Experiment in all cases: microbe, parasite or virus in culture
The subject of experiment [1] is Mycobacterium tuberculosis (replicating TB). In kind it is cell-based.
Another experiment has as its system non-replicating TB. In kind it is cell-based, Mycobacterium tuberculosis.
In experiment [2] the test system is strains of TB that are resistant to Rifampin. In kind it is cell-based. The note with it: Mycobacterium tuberculosis.
Experiment [3] has as its system strains of TB that are resistant to Isoniazid. In kind it is cell-based. As to conditions: Mycobacterium tuberculosis.
Experiment [4] concerns strains of TB that are resistant to Kanamycin. In kind it is cell-based. The note with it: Mycobacterium tuberculosis.

This is an account of results in patent publication US8975015B2, “Antimicrobial compounds” (priority 2009, dated 2015).

Converted amounts (≈) assume the structure as drawn.

For `O=C1C=Cc2nocc2/C1=C1/Nc2ccccc2C1=O` [Example P1, 4-(3-oxoindolin-2-ylidene)benzo[c]isoxazol-5(4H)-one], in experiment [1], the “MIC MABA” value was 0.15 mg/L (≈ 0.568 µM). Besides, in the experiment on non-replicating TB, the “MIC LORA” value stood at 1.833 mg/L (≈ 6.94 µM). The MIC turned out to be 0.239 mg/L (≈ 0.904 µM) in experiment [2], 0.138 mg/L (≈ 0.522 µM) in experiment [3] and 0.148 mg/L (≈ 0.56 µM) in experiment [4].
